Data as given in article PMC3944389, “Differential Neuroprotective Effects of 5′-Deoxy-5′-Methylthioadenosine” (PLoS ONE, 2014).
Marks after values point to notes of the source that are not given here.

Tests used:
[1] = Parallel artificial membrane permeability assay (PAMPA), BBB model, passive diffusion; type: in vitro ADME
Protocol: The PAMPA assay was used to determine the capacity of compounds to cross a blood brain barrier (BBB) model by passive diffusion, measuring the effective permeability of the compounds at an initial concentration of 200 µM. The buffer solution was prepared from a concentrated commercial solution (Pion, Billerica, MA, US) according to the manufacturer's instructions and the pH was adjusted to 7.4 with 0.5 M NaOH. The compound of interest was dissolved in the buffer solution (200 µM), the PAMPA sandwich was separated and the donor well was filled with 195 µL of the compound of interest. The acceptor plate and donor plate were brought together, with the underside of the membrane in contact with the buffer. An 4 µL aliquot of the phospholipid mixture (20 mg/ml) in dodecane was added to the filter of each well, and then 200 µL of buffer solution was added to each acceptor well. The plate was covered and incubated for 4 h at RT in a saturated humidity atmosphere with agitation and with 25 µm of an unstirred water layer in the Gut-Box (Pion). After 4 h, a 150 µL/well sample from the donor plate and a 150 µL/well sample from the acceptor plate were transferred to HPLC vials. Then, 100 µL from acceptor well, 5 µL from the donor well and 5 µL from the t0 samples were injected into an HPLC reverse-phase symmetry C18 column (150 mm×4.6 mm×5 µm, 100 Å; Waters). Transport was confirmed by HPLC mass spectrometry and matrix-assisted laser desorption/ionization time-of-flight (MALDI-TOF) spectrometry to ensure the compound had maintained its integrity. The phospholipid mixture used was a porcine polar brain lipid extract composed of 12.6% phosphatidylcholine (PC), 33.1% phosphatidylethanolamine (PE), 18.5% phosphatidylserine (PS), 4.1% phosphatidylinositol (PI), 0.8% phosphatidic acid and 30.9% of other compounds.

[2] = test system: primary rat oligodendrocyte (OL) cultures; assay: AMPA excitotoxicity in primary oligodendrocytes, calcein-AM viability; type: cell-based; settings: MTA 100 and 300 µM pre-incubated 15 min, viability 24 h after AMPA
Protocol: Primary rat oligodendrocyte (OL) cultures were derived from the optic nerve of 12-day-old Sprague-Dawley rats, as described previously. Cells were seeded onto 12 mm diameter coverslips coated with poly-D-lysine (10 µg/ml) in 24-well plates at a density of 5×10^3 cells per well. The cells were maintained at 37°C in 5% CO2 and in a chemically defined medium. After 2–4 days in vitro, the cultures were composed of at least 98% O4/galactocerebroside-positive (O4/GalC) cells, while the majority of the remaining cells were stained with antibodies against glial fibrillary acidic protein (GFAP). No A2B5^+ or microglial cells were detected in these cultures.
For a-amino-3-hydroxy-5-methyl-4-isoxazolepropionic acid (AMPA) assays in primary rat OLs, cells were pre-incubated with MTA (100 µM and 300 µM) for 15 min and then exposed to AMPA (10 µM) for an additional period of 15 min. Cell viability was assessed with calcein-AM (Invitrogen) 24 h after application of AMPA, and the number of survival cells on each coverslip was detected by their fluorescence (515 nm filter) and quantified.

For 5′-deoxy-5′-methylthioadenosine [MTA], the Membrane retention [1] was “negligible”, the “effective permeability in PAMPA (in words)” value [1] was “low to intermediate effective permeability” and the “% Membrane retention” value ([1]; 200 µM, pH 7.4, 4 h at RT) was 0%. The “Pe x 10^−6 (cm/s)” value ([1]; 200 µM, pH 7.4, 4 h at RT) was 0.15 ^* x 10^−6 cm/s and the “protection of OLs against AMPA toxicity (calcein-AM)” value [2] was “fully protected”.
